In patent publication US10899764B2, “Imidazo isoindole derivative, preparation method therefor and medical use thereof” (Jiangsu Hengrui Medicine Co., Ltd., priority 2015, dated 2021):
pIC50: −log10 of the molar value. Where a name gives a salt, the structure may show the parent alone. Read-outs that look alike come from different tables or passages of the source. One block for each molecule: values may come before it.

Experiments:
IDO in HeLa cells = IDO in HeLa cells (Homo sapiens (Human), UniProt P14902); assay: Inhibition activity on IDO in HeLa cells (INF-γ induced); assay type: cell-based; conditions: HeLa cells, INF-γ and tryptophan, 48 hours; read-out: IC50 for inhibiting the activity of IDO in HeLa cells
Sequence of IDO in HeLa cells (P14902 whole entry): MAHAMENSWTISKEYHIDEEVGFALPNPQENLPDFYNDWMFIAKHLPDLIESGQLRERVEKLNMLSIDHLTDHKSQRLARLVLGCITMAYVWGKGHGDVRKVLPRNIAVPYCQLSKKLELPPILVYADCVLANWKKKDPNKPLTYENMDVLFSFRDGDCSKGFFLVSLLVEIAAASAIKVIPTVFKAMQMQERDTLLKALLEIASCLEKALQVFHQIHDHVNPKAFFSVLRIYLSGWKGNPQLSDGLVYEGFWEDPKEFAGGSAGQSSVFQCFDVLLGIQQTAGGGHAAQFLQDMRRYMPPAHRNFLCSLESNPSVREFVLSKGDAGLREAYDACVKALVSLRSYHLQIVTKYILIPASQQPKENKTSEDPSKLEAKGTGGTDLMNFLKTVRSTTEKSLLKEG
Protocol: Assay for Determining the Inhibition Activity of the Present Compounds on IDO in HeLa Cells
IDO activity in HeLa cells was tested in vitro by the following method.
This method is used to determine the inhibition effect of the compounds of the present invention on the activity of IDO in HeLa cells. (Note: indoleamine 2,3-dioxygenase (IDO) is expressed in the HeLa cell line and induced by interferon gamma (INF-γ)).
The supernatant was removed, serum-free DMEM high glucose medium was added at 90 μL/well, then the compounds contained in the culture medium with INF-γ and tryptophan were added at 10 μL/well (the final concentrations: 10000, 1000, 100, 10, 1, 0.1 nM). […] Then, 80 μL of the supernate was transferred from the 96-well cell culture plate to a 96 well round-bottomed plate, then 30% (W/V) trichloroacetic acid was added at 16 μL/well, then the mixture was incubated for 25 minutes at 65° C. in an incubator. The reaction plate was centrifuged in a centrifuge for 5 minutes at 4700 RPM. Then, 50 μL of the supernatant was transferred from the reaction plate to a 96-well flat-bottomed transparent plate by a multi-channel pipette. Then, 2% (W/V) 4-(dimethylamino)benzaldehyde/glacial acetic acid solution was added at 50 μL/well, then the mixture was mixed uniformly for 1 minute on a shaker. After incubation for 2 minutes at room temperature, the absorbance at 480 nm was read on a Synergy HT Reader.
The inhibition activity of the compounds of the present invention on IDO in HeLa cells was tested by the assay described above.

human IDO1 = human IDO1 (Homo sapiens (Human), UniProt P14902); assay: Inhibition activity on human IDO1 (enzyme assay, absorbance at 480 nm); assay type: biochemical; conditions: read-out: IC50 for inhibiting the activity of human IDO1
Sequence of human IDO1 (P14902 whole entry): as above
Protocol: Assay for Determining the Inhibition Activity of the Present Compounds on Human IDO1
Human IDO1 activity was tested in vitro by the following method.
This method is used to determine the inhibition effect of the compounds of the present invention on the activity of human IDO1.
The human IDO1 gene was transferred to Pet30a plasmid by gene cloning, and then transferred to competent Escherichia coli Rosseta. The IDO1 gene was scaled-up by culturing in liquid LB (Luria-Bertani) medium [which was prepared per liter according to “Molecular Cloning A Laboratory Manual” (J. Sambrook, D. W. Russell)]). The bacteria were collected and lysed by ultrasonic waves. The purified IDO1 was obtained by eluting from a column.
For testing, 24 μL of enzyme (IDO1) was diluted 100 times with 50 mM KPB to 2400 μL. The concentration of the enzyme solution was 2.6 ng/μL. A 96 well reaction plate (AXYGEN, PCR-96-FLT-C) (hereinafter referred to as the “reaction plate”) was added with the enzyme solution at 24 μL/well. The blank well was added with 24 μL of KPB [Preparation of KPB buffer (50 mM): 6.805 g of KH2PO4 was weighed using an analytical balance, and placed into a 1000 mL beaker, deionized water was added with a measuring cylinder to 900 ml, the pH was adjusted to 6.5 by 1M KOH, then the mixture was introduced into a 1 L measuring cylinder, and water was added to 1 L. It was stored at 4° C.]. Then, 1 μL of a compound or DMSO was added into the corresponding wells in the reaction plate. Preparation of solution A: 200 μL of 500 mM L-sodium ascorbate were added with 1050 μL of KPB, then the mixture was mixed uniformly for 3 seconds at the maximum speed in a turbine mixer. Solution B: 100 μL of 10 mM tryptophan were added with 100 μL of 100,000 unit/mL catalase, 5 μL of 10 mM methylene blue, and 1050 μL of KPB successively, then the mixture was mixed uniformly for 3 seconds at the maximum speed in a turbine mixer. Then, 1200 μL of solution A and 1200 μL of solution B were taken and mixed uniformly for 3 seconds at the maximum speed in a turbine mixer. The mixture was added to the reaction plate at 24 μL/well. The reaction plate was placed in a plate centrifuge and centrifuged for 15 seconds at the maximum speed, so that the reaction liquids converged to the bottom. The reaction mixture was mixed uniformly for 30 seconds on a shaker, and incubated for 1 hour at 37° C. in a constant temperature incubator. In the reaction plate, 30% (W/V) trichloroacetic acid was added at 10 μL/well, then the mixture was incubated for 15 minutes at 65° C. in an incubator. The reaction plate was centrifuged in a centrifuge for 5 minutes at 4700 RPM at room temperature. […] Then, 2% (W/V) 4-(dimethylamino)benzaldehyde/glacial acetic acid solution was added at 40 μL/well, and the mixture was mixed uniformly for 1 minute on a shaker at the maximum speed. After incubation for 2 minutes at room temperature, the absorbance at 480 nm was read on a Synergy HT (BIOTEK) reader.
The inhibition activity of the compounds of the present invention on human IDO1 was tested by the assay described above.

[1] = purified recombinant human IDO1, 1 hour at 37° C.

Structure (SMILES): CS(=O)(=O)N1CCC(n2cc(-c3ccc(N4CCC(C5c6c(F)cccc6-c6cncn65)CC4)cc3)cn2)CC1 (stereo not shown) [Example 31, 6-fluoro-5-(1-(4-(1-(1-(methylsulfonyl)piperidin-4-yl)-1H-pyrazol-4-yl)phenyl)piperidin-4-yl)-5H-imidazo[5,1-a]isoindole trifluoroacetate]
- pIC50 (human IDO1): 7.85

Structure (SMILES): Fc1cccc2c1C(C1CCN(c3ccc(-c4cnn([C@@H]5CCOC5)c4)cc3)CC1)n1cncc1-2 (stereo partly drawn) [Example 32, 6-fluoro-5-(1-(4-(1-((R)-tetrahydrofuran-3-yl)-1H-pyrazol-4-yl)phenyl)piperidin-4-yl)-5H-imidazo[5,1-a]isoindole trifluoroacetate]
- pIC50 (IDO in HeLa cells): 6.65
- pIC50 (human IDO1): 7.48

Structure (SMILES): CS(=O)(=O)N1CCCC(Oc2cnc(N3CCC(C4c5c(F)cccc5-c5cncn54)CC3)nc2)C1 (stereo not shown) [Example 37, 6-fluoro-5-(1-(5-((1-(methylsulfonyl)piperidin-3-yl)oxy)pyrimidin-2-yl)piperidin-4-yl)-5H-imidazo[5,1-a]isoindole trifluoroacetate]
- pIC50 (IDO in HeLa cells): 6.94
- pIC50 (human IDO1; [1]): 7.75

Structure (SMILES): Fc1cccc2c1C(C1CCN(c3ccc(OC4CCOC4)cc3)CC1)n1cncc1-2 (stereo not shown) [Example 38, 6-fluoro-5-(1-(4-((tetrahydrofuran-3-yl)oxy)phenyl)piperidin-4-yl)-5H-imidazo[5,1-a]isoindole]
- pIC50 (IDO in HeLa cells): 6.82
- pIC50 (human IDO1; [1]): 7.55

Structure (SMILES): COCCn1cc(-c2ccc(N3CCC(C4c5c(F)cccc5-c5cncn54)CC3)cc2)cn1 (stereo not shown) [Example 42, 6-fluoro-5-(1-(4-(1-(2-methoxyethyl)-1H-pyrazol-4-yl)phenyl)piperidin-4-yl)-5H-imidazo[5,1-a]isoindole trifluoroacetate]
- pIC50 (IDO in HeLa cells): 6.60
- pIC50 (human IDO1): 7.44

Structure (SMILES): CC(=O)NCCn1cc(-c2ccc(N3CCC(C4c5c(F)cccc5-c5cncn54)CC3)cc2)cn1 (stereo not shown) [Example 43, N-(2-(4-(4-(4-(6-fluoro-5H-imidazo[5,1-a]isoindol-5-yl)piperidin-1-yl)phenyl)-1H-pyrazol-1-yl)ethyl)acetamide trifluoroacetate]
- pIC50 (IDO in HeLa cells): 6.77
- pIC50 (human IDO1): 7.20

Structure (SMILES): Fc1cccc2c1C(C1CCN(c3ccc(-c4cnn(C5CCOC5)c4)cc3)CC1)n1cncc1-2 [Example 44, 6-fluoro-5-(1-(4-(1-((R)-tetrahydrofuran-3-yl)-1H-pyrazol-4-yl)phenyl)piperidin-4-yl)-5H-imidazo[5,1-a]isoindole trifluoroacetate]
- pIC50 (IDO in HeLa cells): 6.76
- pIC50 (human IDO1): 7.78

Results, then the molecule that gave them:

- pIC50 (IDO in HeLa cells): 6.73
- pIC50 (human IDO1; [1]): 7.02
Structure (SMILES): COc1ccc(N2CCC(C3c4c(F)cccc4-c4cncn43)CC2)cc1 (stereo not shown) [Example 4, 6-fluoro-5-(1-(4-methoxyphenyl)piperidin-4-yl)-5H-imidazo[5,1-a]isoindole trifluoroacetate]

- pIC50 (IDO in HeLa cells): 6.60
- pIC50 (human IDO1; [1]): 7.10
Structure (SMILES): Cn1cc(-c2cccc(N3CCC(C4c5c(F)cccc5-c5cncn54)CC3)c2)cn1 (stereo not shown) [Example 8, 6-fluoro-5-(1-(3-(1-methyl-1H-pyrazol-4-yl)phenyl)piperidin-4-yl)-5H-imidazo[5,1-a]isoindole]

- pIC50 (IDO in HeLa cells): 6.32
- pIC50 (human IDO1; [1]): 7.14
Structure (SMILES): O=C(NC1CCOCC1)c1ccc(N2CCC(C3c4c(F)cccc4-c4cncn43)CC2)cc1 (stereo not shown) [Example 11, 4-(4-(6-fluoro-5H-imidazo[5,1-a]isoindol-5-yl)piperidin-1-yl)-N-(tetrahydro-2H-pyran-4-yl)benzamide trifluoroacetate]

- pIC50 (IDO in HeLa cells): 7.15
- pIC50 (human IDO1; [1]): 7.16
Structure (SMILES): CC(=O)Nc1cccc(N2CCC(C3c4c(F)cccc4-c4cncn43)CC2)c1 (stereo not shown) [Example 12, N-(3-(4-(6-fluoro-5H-imidazo[5,1-a]isoindol-5-yl)piperidin-1-yl)phenyl)acetamide trifluoroacetate]

- pIC50 (IDO in HeLa cells): 6.70
Structure (SMILES): Fc1cccc2c1C(C1CCN(c3ccccn3)CC1)n1cncc1-2 (stereo not shown) [Example 15, 6-fluoro-5-(1-(pyridin-2-yl)piperidin-4-yl)-5H-imidazo[5,1-a]isoindole trifluoroacetate]

- pIC50 (IDO in HeLa cells): 6.58
Structure (SMILES): Fc1cccc2c1C(C1CCN(c3ncccn3)CC1)n1cncc1-2 (stereo not shown) [Example 16, 6-fluoro-5-(1-(pyrimidin-2-yl)piperidin-4-yl)-5H-imidazo[5,1-a]isoindole trifluoroacetate]

- pIC50 (IDO in HeLa cells): 6.32
Structure (SMILES): O=C(Nc1ccccc1)N1CCC(C2c3c(F)cccc3-c3cncn32)CC1 (stereo not shown) [Example 21, 4-(6-fluoro-5H-imidazo[5,1-a]isoindol-5-yl)-N-phenylpiperidine-1-carboxamide trifluoroacetate]

- pIC50 (IDO in HeLa cells): 6.89
- pIC50 (human IDO1; [1]): 7.24
Structure (SMILES): N#Cc1ccc(NC(=O)N2CCC(C3c4c(F)cccc4-c4cncn43)CC2)cc1 (stereo not shown) [Example 22, N-(4-cyanophenyl)-4-(6-fluoro-5H-imidazo[5,1-a]isoindol-5-yl)piperidine-1-carboxamide trifluoroacetate]

- pIC50 (IDO in HeLa cells): 7.33
Structure (SMILES): COc1cccc(NC(=O)C2CCC([C@@H]3c4c(F)cccc4-c4cncn43)CC2)c1 (stereo partly drawn) [Example 33, (1S,4S)-4-((R)-6-fluoro-5H-imidazo[5,1-a]isoindol-5-yl)-N-(3-methoxyphenyl)cyclohexanecarboxamide]

- pIC50 (IDO in HeLa cells): 7.05
Structure (SMILES): Fc1cccc2c1C(C1CCN(c3ccc(Cl)cn3)CC1)n1cncc1-2 (stereo not shown) [Example 47, 5-(1-(5-chloropyridin-2-yl)piperidin-4-yl)-6-fluoro-5H-imidazo[5,1-a]isoindole]
